According to patent US10370727B2, “Point mutations in TRK inhibitor-resistant cancer and methods relating to the same” (Loxo Oncology, Inc., priority 2015, dated 2019):
Counter-ions that a name gives are not always drawn.

Legend:
[1] = molecular target: TrkB WT (Homo sapiens, UniProt Q16620); assay: Trk enzyme assay ([33P] incorporation into poly-EAY); type: biochemical; conditions: wild-type TrkB enzyme; 22° C., 60 minutes
Experimental: (§1) The assays were conducted in 96-well polypropylene v-bottom microtitre plates (Corning, Costar® 3363) in a total volume of 50 μL. […] The radiolabeled product was then captured on glass fiber filter plates (PerkinElmer, Unifilter®-96, GF/B®) and washed with 5% phosphoric acid to remove unbound radiolabel using a Tomtec MACH III Harvester 96®. After adding 35 μL/well of Bio-Safe II™ liquid scintillation cocktail (Research Products International), the plates were counted in a TopCount NXT (PerkinElmer) using a counting time of 30 s/well. The activity at each concentration of compound was expressed as percent of control (POC) and plotted versus compound concentration.

[2] = molecular target: TrkC G623R (Homo sapiens, UniProt Q16288, G623R/S70N); assay: as above; type: biochemical; conditions: mutant TrkC G623R enzyme; 22° C., 60 minutes
Experimental: The radiolabeled product was then captured on glass fiber filter plates (PerkinElmer, Unifilter®-96, GF/B®) and washed with 5% phosphoric acid to remove unbound radiolabel using a Tomtec MACH III Harvester 96®. After adding 35 μL/well of Bio-Safe II™ liquid scintillation cocktail (Research Products International), the plates were counted in a TopCount NXT (PerkinElmer) using a counting time of 30 s/well. The activity at each concentration of compound was expressed as percent of control (POC) and plotted versus compound concentration.

[3] = molecular target: TrkA G595R (Homo sapiens, UniProt P04629, G595R); assay: as above; type: biochemical; conditions: mutant TrkA G595R enzyme; 22° C., 60 minutes
Experimental: (§2) The activity of the various Trk compounds exemplified in Table 6 was determined by monitoring the incorporation of [^33P]PO4 from [γ-^33P]ATP into poly-EAY (Sigma-Aldrich, P3899).
as §1

[4] = molecular target: TrkC F617L (Homo sapiens, UniProt Q16288, F617L/S70N); assay: as above; type: biochemical; conditions: mutant TrkC F617L enzyme; 22° C., 60 minutes
Experimental: as §1

[5] = molecular target: TrkA V573M (Homo sapiens, UniProt P04629, V573M); assay: as above; type: biochemical; conditions: mutant TrkA V573M enzyme; 22° C., 60 minutes
Experimental: as §2, §1

[6] = molecular target: TrkB G623R (Homo sapiens, UniProt Q16620, G623R); assay: as above; type: biochemical; conditions: mutant TrkB G623R enzyme; 22° C., 60 minutes
Experimental: as §1

[7] = molecular target: TrkA WT (Homo sapiens, UniProt P04629); assay: as above; type: biochemical; conditions: wild-type TrkA enzyme; 22° C., 60 minutes
Experimental: as §1

[8] = molecular target: TrkA F589L (Homo sapiens, UniProt P04629, F589L); assay: as above; type: biochemical; conditions: mutant TrkA F589L enzyme; 22° C., 60 minutes
Experimental: as §2, §1

[9] = molecular target: TrkC WT (Homo sapiens, UniProt Q16288, S70N); assay: as above; type: biochemical; conditions: wild-type TrkC enzyme; 22° C., 60 minutes
Experimental: as §1

[10] = molecular target: TrkA G667S (Homo sapiens, UniProt P04629, G667S); assay: as above; type: biochemical; conditions: mutant TrkA G667S enzyme; 22° C., 60 minutes
Experimental: as §2, §1

[11] = molecular target: TrkA G667C (Homo sapiens, UniProt P04629, G667C); assay: as above; type: biochemical; conditions: mutant TrkA G667C enzyme; 22° C., 60 minutes
Experimental: as §2, §1

[12] = system: TRKB and ERK1/2 activation in NIH3T3 cells expressing TRIM24-NTRK2 fusions; assay: Western blot analysis of NIH3T3 cells expressing TRIM24-NTRK2 fusions; type: cell-based; conditions: 2 hours
Experimental: FIG. 11 is a photograph of a Western blot analysis of NIH3T3 cells treated with the indicated concentrations of (S)—N-(5-((R)-2-(2,5-difluorophenyl)pyrrolidin-1-yl)pyrazolo[1,5-a]pyrimidin-3-yl)-3-hydroxypyrrolidine-1-c[…] (Cmpd A) for 2 hours.
Ba/F3 cells stably expressing MPRIP-NTRK1 or TRIM24-NTRK2 were treated overnight with […] N-Ethyl-N-nitrosourea (ENU), pelleted, resuspended in fresh media, and distributed in 96-well plates in 200 μL media supplemented with (S)—N-(5-((R)-2-(2,5-DIFLUOROPHENYL)PYRROLIDIN-1-YL)PYRAZOLO[1,5-A]PYRIMIDIN-3-YL)-3-HYDROXYPYRROLIDINE-1-C[…] (100, 250, and 500 nM). […] The contents of outgrown wells were expanded in 12-well plates in media supplemented with (S)—N-(5-((R)-2-(2,5-DIFLUOROPHENYL)PYRROLIDIN-1-YL)PYRAZOLO[1,5-A]PYRIMIDIN-3-YL)-3-HYDROXYPYRROLIDINE-1-C[…] at the same concentration as in the initial 96-well plate. At confluence, cells were collected and genomic DNA was extracted. The NTRK1 and NTRK2 kinase region was PCR-amplified and sequenced. Plasmids encoding MPRIP-NTRK1 and TRIM24-NTRK2 mutations were generated with QuickChange site-directed mutagenesis and confirmed by DNA sequencing. Ba/F3 cells and NIH3T3 cells expressing MPRIP-NTRK1 mutants were generated by infecting Ba/F3 and NIH3T3 parental cells with lentivirus encoding MPRIP-NTRK1 mutation followed by selection with puromycin.

[13] = system: TRKA and ERK1/2 activation in NIH3T3 cells expressing MPRIP-NTRK1 fusions; assay: Western blot analysis of NIH3T3 cells expressing MPRIP-NTRK1 fusions; type: cell-based; conditions: 2 hours
[14] = system: cells expressing a TRIM24-NTRK2 fusion protein including TrkB inhibitor resistance mutations; assay: Proliferation (percent of control) of cells expressing mutant TRIM24-NTRK2 fusion; type: cell-based; conditions: Example 3; TrkB substitutions V601G, G623S, R630K
Experimental: N-ethyl-N-nitrosourea (ENU)-exposed Ba/F3-MPRIP-NTRK1 and Ba/F3-TRIM24-NTRK2 cells were used to generate mutations permitting growth of Ba/F3 cells in the absence of IL-3 despite the presence of 100, 250, or 500 nM (S)—N-(5-((R)-2-(2,5-difluorophenyl)pyrrolidin-1-yl)pyrazolo[1,5-a]pyrimidin-3-yl)-3-hydroxypyrrolidine-1-c[…]. The Mutations identified by genomic DNA sequencing in the initial screen were validated by cloning the mutation-bearing cDNAs back into Ba/F3 cells to evaluate their sensitivity to (S)—N-(5-((R)-2-(2,5-DIFLUOROPHENYL)PYRROLIDIN-1-YL)PYRAZOLO[1,5-A]PYRIMIDIN-3-YL)-3-HYDROXYPYRROLIDINE-1-C[…] using both proliferation assays and TRK phosphorylation by immunoblot analyses. Modeling of the mutations was performed by mapping of the amino acid substitutions onto a drug-bound TRK kinase domain crystal structure.
Ba/F3 cells stably expressing MPRIP-NTRK1 or TRIM24-NTRK2 were treated overnight with […] N-Ethyl-N-nitrosourea (ENU), pelleted, resuspended in fresh media, and distributed in 96-well plates in 200 μL media supplemented with (S)—N-(5-((R)-2-(2,5-DIFLUOROPHENYL)PYRROLIDIN-1-YL)PYRAZOLO[1,5-A]PYRIMIDIN-3-YL)-3-HYDROXYPYRROLIDINE-1-C[…] (100, 250, and 500 nM). […]

[15] = system: cells expressing a MPRIP-NTRK1 fusion protein including Trk inhibitor resistance mutations; assay: Proliferation (percent of control) of cells expressing mutant MPRIP-NTRK1 fusion; type: cell-based; conditions: TrkA substitutions V573M, F589L, G667S
Experimental: In the genetic screen cDNAs harboring the MPRIP-NTRK1 oncogene were introduced into Ba/F3 cells. The Ba/F3 cells were treated with the mutagen, 100 μg/mL N-ethyl-N-nitrosourea (ENU; Sigma Aldrich, St. Louis, Mo.), overnight. […] At confluence, the cells were collected and genomic DNA was extracted. The NTRK1 kinase region was amplified and the PCR products were purified and sequenced. A plasmids encoding MPRIP-NTRK1 mutations were generated with QuickChange site-directed mutagenesis according to the manufacturer's instructions using a sequence encoding a wildtype MPRIP-NTRK1 fusion protein as a template. Each mutation was confirmed by DNA sequencing. The Ba/F3 cells and NIH353 cells expressing MPRIP-NTRK1 mutants were generated by infecting Ba/F3 and NIH353 parental cells with lentivirus encoding the mutation MPRIP-NTRK1 fusion proteins, followed by selection with puromycin.

TrkA F589L, sequence (P04629 33-796 F589L): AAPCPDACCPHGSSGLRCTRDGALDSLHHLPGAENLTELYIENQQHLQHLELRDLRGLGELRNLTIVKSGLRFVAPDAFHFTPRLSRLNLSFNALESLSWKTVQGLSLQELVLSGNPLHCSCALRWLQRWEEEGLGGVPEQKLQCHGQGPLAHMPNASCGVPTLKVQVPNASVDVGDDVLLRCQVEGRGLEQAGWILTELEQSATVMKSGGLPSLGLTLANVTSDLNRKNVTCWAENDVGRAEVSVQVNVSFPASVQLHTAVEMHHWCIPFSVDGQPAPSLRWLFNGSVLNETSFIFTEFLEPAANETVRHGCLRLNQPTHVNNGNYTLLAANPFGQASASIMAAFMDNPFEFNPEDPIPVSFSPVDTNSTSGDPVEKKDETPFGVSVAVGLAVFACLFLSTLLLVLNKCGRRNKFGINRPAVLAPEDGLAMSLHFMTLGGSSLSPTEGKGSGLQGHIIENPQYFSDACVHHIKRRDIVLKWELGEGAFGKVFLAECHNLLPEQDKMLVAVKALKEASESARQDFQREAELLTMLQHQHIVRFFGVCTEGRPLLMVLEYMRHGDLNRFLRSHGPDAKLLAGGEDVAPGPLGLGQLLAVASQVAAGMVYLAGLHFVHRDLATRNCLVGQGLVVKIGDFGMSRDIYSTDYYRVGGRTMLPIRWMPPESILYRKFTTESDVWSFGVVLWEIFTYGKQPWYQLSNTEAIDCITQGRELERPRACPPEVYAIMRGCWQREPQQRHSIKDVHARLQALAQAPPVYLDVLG
TrkA WT, sequence (P04629 33-796): as the sequence (P04629 33-796 F589L) above, with L557F counted along it
TrkA G667S, sequence (P04629 33-796 G667S): as the sequence (P04629 33-796 F589L) above, with L557F, G635S counted along it
TrkA V573M, sequence (P04629 33-796 V573M): as the sequence (P04629 33-796 F589L) above, with V541M, L557F counted along it
TrkB WT, sequence (Q16620 32-822): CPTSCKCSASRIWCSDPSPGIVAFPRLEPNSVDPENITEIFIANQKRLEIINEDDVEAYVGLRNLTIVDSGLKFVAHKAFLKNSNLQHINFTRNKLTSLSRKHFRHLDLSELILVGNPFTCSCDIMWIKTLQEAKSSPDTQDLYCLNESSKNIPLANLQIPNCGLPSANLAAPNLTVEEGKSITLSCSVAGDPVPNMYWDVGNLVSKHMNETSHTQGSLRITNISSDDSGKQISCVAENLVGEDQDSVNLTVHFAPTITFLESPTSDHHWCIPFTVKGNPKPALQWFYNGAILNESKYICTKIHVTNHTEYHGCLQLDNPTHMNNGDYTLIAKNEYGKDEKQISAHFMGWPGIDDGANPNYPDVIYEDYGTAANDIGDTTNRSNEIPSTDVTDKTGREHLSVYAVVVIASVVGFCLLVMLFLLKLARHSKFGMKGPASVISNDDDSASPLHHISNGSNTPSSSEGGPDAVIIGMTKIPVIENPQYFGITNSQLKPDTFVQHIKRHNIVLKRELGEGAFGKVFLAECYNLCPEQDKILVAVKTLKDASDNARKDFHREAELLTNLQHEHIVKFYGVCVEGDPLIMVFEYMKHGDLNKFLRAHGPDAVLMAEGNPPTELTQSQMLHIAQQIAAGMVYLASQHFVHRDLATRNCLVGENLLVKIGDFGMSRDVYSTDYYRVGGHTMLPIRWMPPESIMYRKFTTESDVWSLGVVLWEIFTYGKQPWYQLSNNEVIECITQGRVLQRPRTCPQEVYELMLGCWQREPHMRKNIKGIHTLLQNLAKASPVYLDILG
TrkC G623R, sequence (Q16288 32-839 S70N/G623R): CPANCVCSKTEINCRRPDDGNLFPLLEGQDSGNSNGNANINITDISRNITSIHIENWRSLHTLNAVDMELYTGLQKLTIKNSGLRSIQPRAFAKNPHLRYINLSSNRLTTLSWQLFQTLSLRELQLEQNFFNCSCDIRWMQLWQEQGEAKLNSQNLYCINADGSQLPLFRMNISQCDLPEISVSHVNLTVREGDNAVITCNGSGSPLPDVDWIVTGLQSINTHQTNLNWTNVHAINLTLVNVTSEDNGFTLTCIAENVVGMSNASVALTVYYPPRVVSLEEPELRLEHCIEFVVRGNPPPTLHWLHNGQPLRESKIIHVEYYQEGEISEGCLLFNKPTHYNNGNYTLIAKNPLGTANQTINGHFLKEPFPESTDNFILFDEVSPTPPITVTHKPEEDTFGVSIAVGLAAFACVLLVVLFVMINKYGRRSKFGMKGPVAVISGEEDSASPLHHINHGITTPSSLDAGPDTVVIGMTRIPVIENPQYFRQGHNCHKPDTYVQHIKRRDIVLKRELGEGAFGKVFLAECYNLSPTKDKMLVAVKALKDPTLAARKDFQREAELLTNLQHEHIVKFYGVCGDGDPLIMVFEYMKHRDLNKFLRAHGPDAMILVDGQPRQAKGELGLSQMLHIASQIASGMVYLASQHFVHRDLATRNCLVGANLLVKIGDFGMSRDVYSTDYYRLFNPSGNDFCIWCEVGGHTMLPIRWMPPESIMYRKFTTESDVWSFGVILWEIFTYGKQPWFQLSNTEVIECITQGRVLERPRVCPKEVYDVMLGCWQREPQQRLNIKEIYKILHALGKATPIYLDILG
TrkC F617L, sequence (Q16288 32-839 S70N/F617L): as the sequence (Q16288 32-839 S70N/G623R) above, with F586L, R592G counted along it
TrkB G623R, sequence (Q16620 32-822 G623R): as the sequence (Q16620 32-822) above, with G592R counted along it
TrkC WT, sequence (Q16288 32-839 S70N): as the sequence (Q16288 32-839 S70N/G623R) above, with R592G counted along it
TrkA G595R, sequence (P04629 33-796 G595R): as the sequence (P04629 33-796 F589L) above, with L557F, G563R counted along it
TrkA G667C, sequence (P04629 33-796 G667C): as the sequence (P04629 33-796 F589L) above, with L557F, G635C counted along it

Structure (SMILES)	IC50 [1] [nM]	IC50 [2] [nM]	IC50 [3] [nM]	IC50 [4] [nM]	IC50 [5] [nM]	IC50 [6] [nM]	IC50 [7] [nM]	IC50 [8] [nM]	IC50 [9] [nM]	IC50 [10] [nM]	IC50 [11] [nM]	TRKB and ERK1/2 activation, sensitivity to inhibition (FIG. 11) ([12]; NIH3T3 cells expressing TRIM24-NTRK2 V601G, G623S or R630K fusions)	TRKB and ERK1/2 activation, sensitivity to inhibition (FIG. 11) ([12]; NIH3T3 cells expressing TRIM24-NTRK2 WT fusion)	TRKA and ERK1/2 activation, sensitivity to inhibition (FIG. 8) ([13]; NIH3T3 cells expressing MPRIP-NTRK1 V573M, F589L or G667S fusions)	TRKA and ERK1/2 activation, sensitivity to inhibition (FIG. 8) ([13]; NIH3T3 cells expressing MPRIP-NTRK1 WT fusion)	resistance of cancer cells having a TRIM24-NTRK2 point mutation (percent of control, FIG. 10) [14]	resistance of cancer cells having a MPRIP-NTRK1 point mutation (POC, FIG. 4) ([15]; Example 1, F600L, Y676S)	resistance of cancer cells having a MPRIP-NTRK1 point mutation (percent of control, FIG. 7) ([15]; Example 3)
O=C(Nc1cnn2ccc(N3CCC[C@@H]3c3cccc(F)c3)nc12)N1CC(O)C1 [Compound 11, (R)-N-(5-(2-(3-fluorophenyl)pyrrolidin-1-yl)pyrazolo[1,5-a]pyrimidin-3-yl)-3-hydroxyazetidine-1-carboxamide]	19	446	561	476	1200	671	6.9	1080	4.4	275	830							
O=C1NC[C@@H](O)COc2ncc(F)cc2[C@H]2CCCN2c2ccn3ncc1c3n2 [Compound 17, (6R,15R)-9-fluoro-15-hydroxy-13-oxa-2,11,17,21,22,25-hexaazapentacyclo-[17.5.2.0^2,6.0^7,12.0^22,26]-hexacosa-1(25), 7,9,11,19(26),20,23-heptaen-18-one]	3.6	1.8	1.5	< 5	< 5	1.1	< 0.5	2.1	< 2.5	0.7	2.6							
O=C(Nc1cnn2ccc(N3CCC[C@@H]3c3cc(F)ccc3F)nc12)N1CC[C@H](O)C1 [(S)—N-(5-((R)-2-(2,5-difluorophenyl)pyrrolidin-1-yl)pyrazolo[1,5-a]pyrimidin-3-yl)-3-hydroxypyrrolidine-1-carboxamide sulfate]												resistant	sensitive	resistant	sensitive	increased resistance	increased resistance	increased resistance
O=C(Nc1cnn2ccc(N3CCC[C@@H]3c3cc(F)ccc3Cl)nc12)N1CC(O)C1 [Compound 9, (R)-N-(5-(2-(2-chloro-5-fluorophenyl)pyrrolidin-1-yl)pyrazolo[1,5-a]pyrimidin-3-yl)-3-hydroxyazetidine-1-carboxamide]	4.6	92.6	91.9	66.5	106	104	0.8	90.7	< 2.5	21.6	76.5							
O=C1NCC(F)(F)COc2ncc(F)cc2[C@H]2CCCN2c2ccn3ncc1c3n2 [Compound 23, (6R)-9,15,15-trifluoro-13-oxa-2,11,17,21, 22,25-hexaazapentacyclo [17.5.2.0^2,6.0^7,12.0^22,26]hexacosa-1(25),7,9, 11,19(26),20,23-heptaen-18-one]	6.1	2.1	1.6	5.8	< 5	1.1	0.7	< 1	2.7	0.3	0.8							

The next lines start with results.

IC50 [1] [nM]	IC50 [2] [nM]	IC50 [3] [nM]	IC50 [4] [nM]	IC50 [5] [nM]	IC50 [6] [nM]	IC50 [7] [nM]	IC50 [8] [nM]	IC50 [9] [nM]	IC50 [10] [nM]	IC50 [11] [nM]	Structure (SMILES)	TRKB and ERK1/2 activation, sensitivity to inhibition (FIG. 11) ([12]; NIH3T3 cells expressing TRIM24-NTRK2 V601G, G623S or R630K fusions)	TRKB and ERK1/2 activation, sensitivity to inhibition (FIG. 11) ([12]; NIH3T3 cells expressing TRIM24-NTRK2 WT fusion)	TRKA and ERK1/2 activation, sensitivity to inhibition (FIG. 8) ([13]; NIH3T3 cells expressing MPRIP-NTRK1 V573M, F589L or G667S fusions)	TRKA and ERK1/2 activation, sensitivity to inhibition (FIG. 8) ([13]; NIH3T3 cells expressing MPRIP-NTRK1 WT fusion)	resistance of cancer cells having a TRIM24-NTRK2 point mutation (percent of control, FIG. 10) [14]	resistance of cancer cells having a MPRIP-NTRK1 point mutation (POC, FIG. 4) ([15]; Example 1, F600L, Y676S)	resistance of cancer cells having a MPRIP-NTRK1 point mutation (percent of control, FIG. 7) ([15]; Example 3)
5.6	7.8	7.3	48.5	29.1	12.4	0.6	66.3	< 2.5	8.4	22.2	CC(=O)N1CCOc2ccc(F)cc2[C@H]2CCCN2c2ccn3ncc(c3n2)C1 [Compound 21, 1-[(6R)-9-fluoro-13-oxa-2,16,20,21,24-pentaazapentacyclo[16.5.2.0^2,6.0^7,12.0^21,25]pentacosa-1(24),7,9,11,18(25),19,22-heptaen-16-yl]ethan-1-one]							
6.5	101	107	80.1	105	150	0.9	103	< 2.5	27	89.2	CC1(O)CN(C(=O)Nc2cnn3ccc(N4CCC[C@@H]4c4cc(F)ccc4Cl)nc23)C1 [Compound 10, (R)-N-(5-(2-(2-chloro-5-fluorophenyl)pyrrolidin-1-yl)pyrazolo[1,5-a]pyrimidin-3-yl)-3-hydroxy-3-methylazetidine-1-carboxamide]							
5	54.9	49.6	67.1	129	64.6	0.9	154	< 2.5	19.7	84.2	CN(C)C(=O)Nc1cnn2ccc(N3CCC[C@@H]3c3cc(F)ccc3F)nc12 [Compound 8, (R)-3-(5-(2-(2,5-difluorophenyl)pyrrolidin-1-yl)pyrazolo[1,5-a]pyrimidin-3-yl)-1,1-dimethylurea]							
4.4	1.8	1.2	5.1	< 5	1	0.5	1.1	< 2.5	0.3	0.9	O=C1NCCCOc2ccc(F)cc2[C@H]2CCCN2c2ccn3ncc1c3n2 [Compound 19, (6R)-9-fluoro-13-oxa-2,17,21,22,25-pentaazapentacyclo[17.5.2.0^2,6.0^7,12.0^22,26] hexacosa-1(25),7,9,11,19(26),20,23-heptaen-18-one]							
